# Experimental data as given in patent US20110275714A1, “Use Of Cationic Surfactants As Acaricidal Agents” (priority 2009, published 2011).
# “Also recorded” adds a separate entry of the source.
# Key:
# [1] = tested on: Leuconostoc mesenteroides CETC 912; conditions: Gram + Bacteria; cited from earlier work
# [2] = tested on: Bacillus subtilis ATCC 6633; conditions: Gram + Bacteria; cited from earlier work
# [3] = tested on: Salmonella typhimurium ATCC16028; conditions: Gram − Bacteria; cited from earlier work
# Escherichia coli 0157H7 = conditions: Gram − Bacteria; cited from earlier work
# [4] = tested on: Penicillium funiculosum CECT 2914; conditions: Fungi; cited from earlier work
# [5] = tested on: Saccharomyces cerevisiae ATCC 9763; conditions: Yeast; cited from earlier work
# [6] = tested on: Pseudomonas aeruginosa ATCC 9027; conditions: Gram − Bacteria; cited from earlier work
# [7] = tested on: Aureobasidium pullulans ATCC 9348; conditions: Fungi; cited from earlier work
# [8] = tested on: Bacillus cereus var mycoide ATCC 11778; conditions: Gram + Bacteria; cited from earlier work
# [9] = tested on: Aspergillus niger ATCC14604; conditions: Fungi; cited from earlier work
# mite colonies = test: Mite colonies on cured ham treated with LAE on the surface (Example 4); assay type: in vivo
# Procedure: A dose level of 200 ppm of LAE (or 0.02% of LAE) was added onto the surface of a ham at the beginning of its curing process. The results were compared with a control sample that consisted on a cured ham without being treated with LAE. All hams (control and treated with LAE) were cured during a period of 6 months.
# After 6 months, when the curing process was finished it was observed that 85% of ham not treated with LAE (control samples) had mite colonies alive onto the surfaces of hams. In contrast, only 30% of hams treated with LAE had mite colonies alive onto their surface.
# Before delivering the hams to the client, the producer extracted the bone in order to slice the ham. It was observed that 25% of ham non-treated with LAE (control) contained mite colonies alive inside the ham. The presence of mite colonies produced the formation of holes between 2 to 3 cm of diameter. These holes in the ham looked like a putrefacted ham.
# [10] = tested on: Listeria monocytogenes ATCC 7644; conditions: Gram + Bacteria; cited from earlier work
# [11] = tested on: Micrococcus luteus ATCC 9631; conditions: Gram + Bacteria; cited from earlier work
# [12] = tested on: Arthrobacter oxydans ATCC 8010; conditions: Gram + Bacteria; cited from earlier work
# [13] = tested on: Enterobacter aerogenes CECT 689; conditions: Gram − Bacteria; cited from earlier work
# [14] = tested on: Candida albicans ATCC 10231; conditions: Yeast; cited from earlier work
# [15] = tested on: Gliocadium virens ATCC 4645; conditions: Fungi; cited from earlier work
# [16] = tested on: Mycobacterium phlei ATCC 41423; conditions: listed under Gram − Bacteria; cited from earlier work
# [17] = rats; cited from earlier work
# [18] = tested on: Proteus mirabilis CECT 170; conditions: Gram − Bacteria; cited from earlier work
# [19] = tested on: Serratia marcenses CECT 274; conditions: Gram − Bacteria; cited from earlier work
# [20] = tested on: Lactobacillus delbrueckii ssp lactis CECT 372; conditions: Gram + Bacteria; cited from earlier work
# [21] = tested on: Klebsiella pneumoniae var pneumoniae CECT 178; conditions: Gram − Bacteria; cited from earlier work
# [22] = animals and humans; cited from earlier work
# [23] = tested on: Citrobacter freundii ATCC 22636; conditions: Gram − Bacteria; cited from earlier work
# [24] = tested on: Clostridium perfringens ATCC 77454; conditions: Gram + Bacteria; cited from earlier work
# [25] = tested on: Escherichia coli ATCC 8739; conditions: Gram − Bacteria; cited from earlier work
# [26] = tested on: Mold mite Tyrophagus putrescentiae; test: Mold mite survivorship in rearing diet with LAE, six weeks (Example 2); assay type: in vivo; conditions: 1% LAE in diet
# Procedure: This example determines the effect of LAE on the mortality, reproduction and immature development of Mold mite Tyrophagus putrescentiae.
# (§1) Mixed developmental stages of the Mold mite, Tyrophagus putrescentiae, were used in the experiments. The individuals of the species came from IRTA, Crop Protection Department and had been maintained on standard diets at 25±1° C., 70±10% r.h. and a photoperiod of 16:8 L:D. Experiments were conducted in a climatic chamber at the same environmental conditions.
# The food additive (LAE) was supplied by the company VEDEQSA as a fine sifted dust, and was uniformly mixed with a mix of bran, brewer's yeast and glycerin for the Mold mite. A high dosage of 1% LAE was tested. A control treatment with no food additive was included for reference. Fifteen replications per treatment were prepared.
# (§2) For the mold mite, the experimental arenas were ventilated plastic cages (100 ml) containing 15 g of a mixed diet (bran, brewer's yeast and giycerine). Mites were added to arenas in numbers of 25 individuals. Plastic cages were isolated in hermetic boxes containing a solution of glycerine in order to maintain the relative humidity at 75%.
# Six weeks after T. putrescentiae infestation the total number of individuals present in each replication was counted. […]
# [27] = tested on: Staphylococcus aureus ATCC 6538; conditions: Gram + Bacteria; cited from earlier work
# [28] = tested on: Bordetella bronchiseptica ATCC 4617; conditions: Gram − Bacteria; cited from earlier work
# [29] = tested on: Penicillium chrysogenum CECT 2802; conditions: Fungi; cited from earlier work
# [30] = tested on: Mold mite Tyrophagus putrescentiae; test: Mold mite survivorship in diet with Mirenat-G (LAE in glycerin), four weeks (Example 3); assay type: in vivo; conditions: for Mold mites number: four weeks after infestation with 25 individuals, n = 15, means ± SEM
# Procedure: This example determines the effect of three different concentrations of LAE on the mortality, reproduction and immature development of mold mite Tyrophagus putrescentiae. The dose level tested were 0.125%, 0.25% and 0.5% of LAE.
# as §1, with “this specie” for “the species”
# The food additive Mirenat-G (10.5% LAE in glycerin) was supplied by the company VEDEQSA and was uniformly mixed with a mix of bran, brewer's yeast for the Mold mite. It was tested at the following dosages of 0.125%, 0.25% and 0.5% LAE. A control treatment with no food additive was included for reference. Fifteen replications per treatment were prepared.
# as §2, with “glycerin).” for “giycerine).”
# Four weeks after T. putrescentiae infestation the total number of individuals present in each replication was counted.
# The mean number of individuals were compared between treatments with or without the additive for the pest specie using a one-way analysis of variance (ANOVA) procedure and means were separated by Tukey test (PROC GLM; SAS Institute 2000).
# [31] = tested on: Hyalomma marginatum rufipes; test: Mortality of adult ticks in vials with LAE in a food carrier (Example 1); conditions: 24 h contact
# Procedure: This example determines the activity of LAE against a type of tick, Hyalomma marginatum rufipes.
# During 3 weeks adult ticks of Hyalomma marginatum rufipes were unfed. 15 unsexed ticks were introduced in each vial of treatment. All vials were closed with a mesh and plastic bands in order to avoid that ticks could escape from the vials. The mortality of ticks was studied 24 h later and compared from the different treatments performed.
# Two types of treatment were performed and then compared with the control. One treatment consisted in a dispersion of 0.2% LAE in a food carrier. The other treatment was 1.0% LAE in a food carrier. The control was a vial that contained the ticks without LAE. For each treatment and control samples 5 replicates were carried out.
# After 24 hours of contact of ticks with LAE in the vials, the percentage of mortality of ticks was determined (Table 2).
# [32] = tested on: Alcaligenes faecalis ATCC 8750; conditions: Gram − Bacteria; cited from earlier work
# [33] = tested on: Rhodotorula rubra CECT 1158; conditions: Yeast; cited from earlier work
# [34] = tested on: Chaetonium globosum ATCC 6205; conditions: Fungi; cited from earlier work
smiles,measurement,setting,value
"CCCCCCCCCCCC(=O)N[C@@H](CCCN=C(N)N)C(=O)OCC.Cl [LAE, ethyl ester of the lauramide of the arginine monohydrochloride]",M.I.C.,[1],32 ppm
same,M.I.C.,[2],16 ppm
same,M.I.C.,[3],32 ppm
same,M.I.C.,Escherichia coli 0157H7,20 ppm
same,M.I.C.,[4],16 ppm
same,M.I.C.,[5],32 ppm
same,M.I.C.,[6],64 ppm
same,M.I.C.,[7],16 ppm
same,M.I.C.,[8],32 ppm
same,M.I.C.,[9],32 ppm
same,hams with mite colonies alive onto their surface,"mite colonies; 200 ppm (0.02%) LAE on ham surface at start of curing, after 6 months curing",30%
same,mite colonies alive inside the ham,"mite colonies; 200 ppm (0.02%) LAE on ham surface, sliced ham after 6 months curing",no presence of mite colonies alive inside the ham
same,M.I.C.,[10],10 ppm
same,M.I.C.,[11],128 ppm
same,M.I.C.,[12],64 ppm
same,M.I.C.,[13],32 ppm
same,M.I.C.,[14],16 ppm
same,M.I.C.,[15],32 ppm
same,M.I.C.,[16],2 ppm
same,absorption and metabolisation,[17],fast absorption and metabolisation into naturally-occurring amino acids and the fatty acid lauric acid
same,M.I.C.,[18],32 ppm
same,M.I.C.,[19],32 ppm
same,M.I.C.,[20],16 ppm
same,M.I.C.,[21],32 ppm
same,toxicological studies,[22],completely harmless to animals and humans
same,M.I.C.,[23],64 ppm
same,M.I.C.,[24],16 ppm
same,M.I.C.,[25],32 ppm
same,Mold mites number,"[26]; six weeks after infestation with 25 individuals, n = 15, mean ± SEM",0.1 ± 0.1^
same,survivorship of the Mold mite in the standard rearing diet,"[26]; six weeks after infestation, monohydrochloride",did not survive; also recorded: very low
same,M.I.C.,[27],32 ppm
same,M.I.C.,[28],128 ppm
same,M.I.C.,[29],128 ppm
same,Mold mites number,[30]; 0.125% LAE (as Mirenat-G) in diet,20.9 ± 9.77
same,Mold mites number,[30]; 0.25% LAE (as Mirenat-G) in diet,13.17 ± 3.70
same,Mold mites number,[30]; 0.5% LAE (as Mirenat-G) in diet,6.7 ± 1.49
same,reduction in the mean number of individuals present,"[30]; 0.5% of LAE, after 4-week infestation",70%
same,Mortality,"[31]; 0.2% LAE in a food carrier, n = 5",6.7%
same,Mortality,"[31]; 1.0% LAE in a food carrier, n = 5, monohydrochloride",38.7%
same,M.I.C.,[32],64 ppm
same,M.I.C.,[33],16 ppm
same,M.I.C.,[34],16 ppm
